For orientation: IC50 means the midpoint of a concentration-inhibition curve. As usually defined, the EC50 is the concentration at which the effect is half-maximal.

The text below walks through data of article PMC8688152, “Distinct classes of potassium channels fused to GPCRs as electrical signaling biosensors” (Cell Reports Methods, 2021).

The target of one test is T1, mTREK-1 −43 (Mus musculus, UniProt P97438).
T1 construct: expressed in transfected cells; host or cells: Xenopus oocytes (mRNA injection); gene synthesized by GeneCust
The experiment in a line: TEVC control: unfused N-terminally truncated mTREK-1 −43. Particulars: 10 μM BL1249, TEVC. The format is cell-based. The protocol: (§1) Microelectrodes were filled with […]. […] The membrane voltage was clamped to −50 mV.

For test [1], the target named is T2, M2_T-00-43 (UniProt P08172+P97438).
T2 sequence (P08172+P97438 with tags, fused parts or gaps): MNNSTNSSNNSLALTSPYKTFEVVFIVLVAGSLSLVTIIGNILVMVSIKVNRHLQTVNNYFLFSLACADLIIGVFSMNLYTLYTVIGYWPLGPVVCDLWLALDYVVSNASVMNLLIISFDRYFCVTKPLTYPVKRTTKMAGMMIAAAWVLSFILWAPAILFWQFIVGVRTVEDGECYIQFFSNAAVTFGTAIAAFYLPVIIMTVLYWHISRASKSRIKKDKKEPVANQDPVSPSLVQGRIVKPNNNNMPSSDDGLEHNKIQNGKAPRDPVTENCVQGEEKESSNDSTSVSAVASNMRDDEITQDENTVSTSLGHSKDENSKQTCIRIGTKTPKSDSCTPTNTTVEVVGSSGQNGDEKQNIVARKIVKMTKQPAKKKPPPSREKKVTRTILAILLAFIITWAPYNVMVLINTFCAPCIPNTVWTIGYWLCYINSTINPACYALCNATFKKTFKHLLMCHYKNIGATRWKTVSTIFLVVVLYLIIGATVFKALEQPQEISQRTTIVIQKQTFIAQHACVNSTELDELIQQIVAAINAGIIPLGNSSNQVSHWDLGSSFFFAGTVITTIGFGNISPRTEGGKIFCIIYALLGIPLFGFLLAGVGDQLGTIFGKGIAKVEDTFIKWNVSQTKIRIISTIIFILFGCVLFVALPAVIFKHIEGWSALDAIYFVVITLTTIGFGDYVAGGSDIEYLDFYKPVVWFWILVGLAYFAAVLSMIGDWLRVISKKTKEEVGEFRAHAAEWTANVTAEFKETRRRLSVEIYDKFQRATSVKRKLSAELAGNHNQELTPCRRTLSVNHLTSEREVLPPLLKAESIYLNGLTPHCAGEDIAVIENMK
The experiment in a line: Whole-cell patch-clamp on HEK293 cells expressing M2_T-00-43. The format is cell-based, human (M2), mouse (TREK-1). On the set-up: expressed in transfected cells; host or cells: HEK293 (pIRES2-eGFP vector). As for the experimental part:
HEK293 cells were grown in 75-mm tissue-culture dishes (Falcon, Franklin Lakes, NJ) in Dulbecco’s modified Eagle’s medium (Gibco, Life Technologies, Saint Aubin, France) supplemented with 10% fetal calf serum (Hyclone, Thermo Fisher Scientific GMBH, Ulm, Germany) and 1% penicillin/streptomycin (Gibco, Life Technologies, Saint Aubin, France) in a humidified incubator at 37 °C (5% CO2). For electrophysiology of ICCRs, […] of plasmid was transfected using Jet-PEI (PolyPlus Transfection, Illkirch FRANCE) according to the manufacturer’s instructions. Cells were plated onto 35-mm dishes 24 h before transfection, and experiments were performed over the following 1–2 days.
Pipettes were pulled from hematocrit-capillaries (Hirschmann Laborgeraete, Germany) using a vertical puller (PC-10, Narishige International, London, United Kingdom), and had resistances of 3–6 MΩ when filled with internal solution and measured in standard bath solution. Whole cell membrane currents were measured and filtered at 3 kHz by a MultiClamp 700A patch clamp amplifier (Molecular Devices), and digitized at 10 kHz using a 12-bit analog-to-digital converter Digidata-1322A (Axon Instrument, Sunnyvale, CA, United States). Recordings were done using Clampex 9 software (Axon Instrument). […]

Another test relates to M2_Kir6.2-09-25. On the set-up: method as in Moreau et al., 2017. Particulars: Kir6.2 ICCRs; ref Moreau et al., 2017; read-out: IC50 observed with Kir6.2 ICCRs; cited from earlier work.
The target in another test is T3, M2_Kcv-09-03 (UniProt P08172+Q84568).
T3 construct: expressed in transfected cells; host or cells: Xenopus oocytes (mRNA injection)
T3 sequence (P08172+Q84568 with tags, fused parts or gaps): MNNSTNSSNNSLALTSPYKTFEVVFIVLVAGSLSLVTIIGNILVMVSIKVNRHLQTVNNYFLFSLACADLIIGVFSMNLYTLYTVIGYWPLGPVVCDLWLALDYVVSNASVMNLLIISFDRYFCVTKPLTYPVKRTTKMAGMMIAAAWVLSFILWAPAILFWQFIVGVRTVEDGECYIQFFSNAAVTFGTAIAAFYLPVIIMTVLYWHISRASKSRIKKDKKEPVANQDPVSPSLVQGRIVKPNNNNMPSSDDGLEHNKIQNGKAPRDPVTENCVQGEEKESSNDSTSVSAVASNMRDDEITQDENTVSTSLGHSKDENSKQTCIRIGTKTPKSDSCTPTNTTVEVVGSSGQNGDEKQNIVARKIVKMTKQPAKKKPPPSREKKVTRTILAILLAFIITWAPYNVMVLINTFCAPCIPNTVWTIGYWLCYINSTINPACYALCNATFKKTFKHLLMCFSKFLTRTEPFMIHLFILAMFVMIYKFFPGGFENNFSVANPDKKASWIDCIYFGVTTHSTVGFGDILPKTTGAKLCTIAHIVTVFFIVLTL
The experiment in a line: TEVC recording of M2_Kcv-09-03 ICCR expressed in Xenopus oocytes. The format is cell-based, human (M2), Paramecium bursaria chlorella virus 1 (Kcv). The protocol: as §1

Test [2] deals with T2, M2_T-00-43. The experiment in a line: TEVC recording of M2_T-00-43 ICCR in Xenopus oocytes. The format is cell-based, human (M2), mouse (TREK-1). On the set-up: full-length (−00) or M2 deleted of its last nine residues (−09) in the indicated ICCRs; expressed in transfected cells; host or cells: Xenopus oocytes (mRNA injection). As for the experimental part:
(§2) Xenopus oocytes were prepared as previously reported ([Moreau et al., 2008]). Briefly, after surgical retrieval, the oocytes were defolliculated by type 1A collagenase. Each oocyte was injected with 50 nl of RNAse-free water containing the desired mRNAs. The mRNA quantities used per oocyte were: ICCR with Kcv, 2.7 ng (M2_Kcv and D2_Kcv) and 2.9 ng (OXTR_Kcv); ICCR with mTREK-1, 4.2 ng; ICCR with Kir6.2, 4.3 ng; M2, 2.3 ng; D2, 2.2 ng; Kir3.4T, 2.2 ng; Kcv 0.46 ng and mTREK-1, 2.1 ng. Microinjected oocytes were incubated 2 to 3 days at 19°C in modified-Barth's solution (in mM: 1 KCl, 0.82 MgSO4, 88 NaCl, 2.4 NaHCO3, 0.41 CaCl2, 16 HEPES, pH 7.4) supplemented with 100 U.ml^−1 of penicillin and streptomycin and 0.1 mg.mL^−1 of gentamycin. Animal handling and experiments fully conformed to European regulations and were approved by the French Ministry of Higher Education and Research (APAFIS#4420-2016030813053199 v4 to CM). Authorization of the animal facility has been delivered by the Prefect of Isere (Authorization #D 38 185 10 001).
(§3) Two-electrode voltage-clamp (TEVC) recordings were performed automatically with HiClamp robots (MultiChannel Systems). These TEVC robots rapidly change the applied solutions by transferring the oocytes in different wells of a 96-well plate. […] Microelectrodes were filled with […]. During recordings, oocytes were incubated in low potassium concentration buffer (ND96, in mM: 96 NaCl, 2 KCl, 1.8 CaCl2, 1 MgCl2, 5 HEPES, pH 7.4 supplemented with 0.3 niflumic acid), and in high potassium buffer (in mM: 91 KCl, 1.8 CaCl2, 1 MgCl2, 5 HEPES, 0.3 niflumic acid, pH 7.4). The membrane voltage was clamped to −50 mV. Ligands and BaCl2 were diluted in the high potassium buffer. […] Ligand effects were measured in high potassium concentration buffer with the membrane potential clamped to −50 mV and at 19°C.
(§4) Change of potassium current induced by ligand was calculated either with the barium-sensitive currents as a 0-reference for Kcv-based ICCRs or with the currents in ND96 for mTREK-1 ICCRs. Softwares created by Michel Vivaudou ([Vivaudou, 2019]) were used to extract the raw data.

Another test has as its system D2_K+09M2-25. The following applies: read-out: EC50 on the equivalent Kir6.2 ICCR (D2_K+09M2-25); ref Moreau et al., 2008; cited from earlier work.
In test [3] the target is unfused D2L and mTREK-1 (D2+mTREK-1) (Homo sapiens, UniProt P14416). Particulars: control with co-expression of the unfused proteins, mean ± SEM. As for the experimental part:
as §2, §3, §4

A further test deals with D2_T-00-43 (UniProt P14416+P97438). The following applies: weak inhibition, mean ± SEM. The protocol: as §2, §3, §4
Sequence of D2_T-00-43 (P14416+P97438 fused): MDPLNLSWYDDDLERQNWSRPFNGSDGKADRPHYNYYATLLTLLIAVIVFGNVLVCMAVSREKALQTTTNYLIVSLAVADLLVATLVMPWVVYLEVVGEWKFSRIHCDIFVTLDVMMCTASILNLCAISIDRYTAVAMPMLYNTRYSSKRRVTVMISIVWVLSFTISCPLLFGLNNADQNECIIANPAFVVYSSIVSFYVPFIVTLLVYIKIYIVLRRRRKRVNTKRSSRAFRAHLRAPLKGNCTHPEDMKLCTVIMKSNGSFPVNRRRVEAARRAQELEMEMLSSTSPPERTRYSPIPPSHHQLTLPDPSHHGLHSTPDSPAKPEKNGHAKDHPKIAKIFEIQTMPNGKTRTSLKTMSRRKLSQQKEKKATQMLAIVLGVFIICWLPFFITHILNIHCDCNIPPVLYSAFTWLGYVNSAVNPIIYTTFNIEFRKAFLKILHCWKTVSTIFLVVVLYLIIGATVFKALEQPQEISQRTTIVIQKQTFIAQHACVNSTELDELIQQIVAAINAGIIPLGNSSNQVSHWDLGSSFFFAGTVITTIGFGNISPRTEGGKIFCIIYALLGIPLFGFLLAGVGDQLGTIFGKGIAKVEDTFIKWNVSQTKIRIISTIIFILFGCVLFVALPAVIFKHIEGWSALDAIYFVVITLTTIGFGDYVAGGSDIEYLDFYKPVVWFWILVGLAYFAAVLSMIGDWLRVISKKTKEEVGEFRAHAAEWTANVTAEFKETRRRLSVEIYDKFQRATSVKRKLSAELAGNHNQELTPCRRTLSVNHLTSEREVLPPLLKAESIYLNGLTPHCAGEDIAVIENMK
In test [4] the test system is Kir3.4T co-expressed with D2_Kcv-00-03. The following applies: TEVC, Xenopus oocytes. As for the experimental part: as §2, §3, §4
In another test the target is D2_T+09M2-43 (UniProt P14416+P97438). The following applies: TEVC. As for the experimental part: as §2, §3, §4
Sequence of D2_T+09M2-43 (P14416+P97438 fused): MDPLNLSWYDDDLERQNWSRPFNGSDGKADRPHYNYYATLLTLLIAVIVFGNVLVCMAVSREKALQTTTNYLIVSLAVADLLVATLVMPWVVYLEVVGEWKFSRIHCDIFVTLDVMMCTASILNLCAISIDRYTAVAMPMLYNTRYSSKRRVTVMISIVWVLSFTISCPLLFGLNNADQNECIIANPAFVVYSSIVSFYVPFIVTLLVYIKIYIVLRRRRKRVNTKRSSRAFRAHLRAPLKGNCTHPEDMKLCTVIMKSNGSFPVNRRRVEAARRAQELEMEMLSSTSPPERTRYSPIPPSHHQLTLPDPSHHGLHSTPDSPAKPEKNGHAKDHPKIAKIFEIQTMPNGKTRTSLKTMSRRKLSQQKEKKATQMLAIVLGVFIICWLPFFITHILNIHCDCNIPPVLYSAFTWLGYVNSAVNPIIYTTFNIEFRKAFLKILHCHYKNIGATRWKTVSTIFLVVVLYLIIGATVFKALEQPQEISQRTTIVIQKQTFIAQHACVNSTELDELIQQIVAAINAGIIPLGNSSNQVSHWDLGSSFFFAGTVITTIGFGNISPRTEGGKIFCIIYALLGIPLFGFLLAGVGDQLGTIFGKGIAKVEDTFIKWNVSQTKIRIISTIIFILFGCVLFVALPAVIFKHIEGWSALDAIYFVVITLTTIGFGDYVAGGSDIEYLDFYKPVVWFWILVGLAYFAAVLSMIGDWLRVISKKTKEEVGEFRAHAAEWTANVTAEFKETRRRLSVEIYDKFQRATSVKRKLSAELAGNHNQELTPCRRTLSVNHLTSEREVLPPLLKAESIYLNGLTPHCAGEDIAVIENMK
The subject of the next test is OXTR[T4L]_Kcv-42-03. Briefly: TEVC recording of OXTR[T4L]_Kcv-42-03 in Xenopus oocytes. It is filed as cell-based, human (OXTR), Paramecium bursaria chlorella virus 1 (Kcv). As for the experimental part: as §2, with “Authorization of the animal facility has been delivered by the Prefect of Isere (Authorization #D 38 185 10 001).” left out
Two-electrode voltage-clamp (TEVC) recordings were performed automatically with HiClamp robots (MultiChannel Systems). […] Ligand effects were measured in high potassium concentration buffer with the membrane potential clamped to −50 mV and at 19°C.
Change of potassium current induced by ligand was calculated either with the barium-sensitive currents as a 0-reference for Kcv-based ICCRs or with the currents in ND96 for mTREK-1 ICCRs. […]

Where [5] appears, read: concentration-effect curve, TEVC.

Sequence of unfused D2L and mTREK-1 (D2+mTREK-1) (P14416 whole entry, the tested form may be a part): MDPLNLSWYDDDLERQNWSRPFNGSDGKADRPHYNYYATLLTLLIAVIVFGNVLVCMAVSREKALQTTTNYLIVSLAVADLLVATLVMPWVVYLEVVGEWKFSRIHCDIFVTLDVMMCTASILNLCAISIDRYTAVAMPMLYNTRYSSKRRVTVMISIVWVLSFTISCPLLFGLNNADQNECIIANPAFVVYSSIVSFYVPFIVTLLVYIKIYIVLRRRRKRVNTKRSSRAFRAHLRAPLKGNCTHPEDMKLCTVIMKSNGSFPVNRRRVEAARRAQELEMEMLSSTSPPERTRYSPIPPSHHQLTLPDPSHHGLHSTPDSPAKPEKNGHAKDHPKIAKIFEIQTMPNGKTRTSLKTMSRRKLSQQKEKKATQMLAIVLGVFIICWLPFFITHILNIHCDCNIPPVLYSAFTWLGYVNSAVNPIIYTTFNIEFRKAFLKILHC

Consider `c1ccc(-c2nn[nH]n2)c(Nc2cccc3c2CCCC3)c1` [BL1249], for which the “activation of unfused truncated mTREK-1 −43 by BL1249, compared with WT channel” value on mTREK-1 −43 is “lower activation”. Also, the “activation of M2_T-00-43: increase of the current” value at M2_T-00-43 [1] (10 μM BL1249, mean ± SEM) is on record as 880% ± 190%.
In the case of `C[N+](C)(C)CCOC(N)=O` [CCh, carbachol], the half-maximal inhibitory concentration (IC50) in the test on M2_Kir6.2-09-25 was 1200 nM. Besides, the “Hill coefficient (nH) on M2_Kcv-09-03” value at M2_Kcv-09-03 (setting [5]) is 0.98. In addition, the “Hill coefficient (nH) on M2_T-00-43” value at M2_T-00-43 [2] (setting [5]) came to 0.97.
On to `CN1[C@@H]2CC[C@H]1C[C@@H](OC(=O)C(CO)c1ccccc1)C2` (stereo partly drawn) [atropine], for which the “effect of atropine co-application on the ACh response of M2_Kcv-09-03” value at M2_Kcv-09-03 (1 μM atropine co-applied with ACh 5 μM) is reported as “almost entirely abolished the ACh response”. On M2_T-00-43 [2], the “effect of atropine co-application on ACh-induced activation of M2_T-00-43” value was “inhibited ACh-induced activation”.
Regarding `NCCc1ccc(O)c(O)c1` [dopamine], in the test with D2_K+09M2-25, the EC50 is 400 nM. In addition, the “% of current change induced by 5 μM dopamine on unfused D2 + mTREK-1” value in test [3] is recorded as −2.2% ± 1.3%. Also, the “% of current change induced by 5 μM dopamine on D2_T-00-43” value on D2_T-00-43 was −4.1% ± 0.6%. Also, in [4], the “G protein activation (Kir3.4T) by D2_Kcv-00-03 upon dopamine application” value is “triggers the activation of the endogenous Gi/o proteins”. Further, the “activation: % of current change induced by 5 μM dopamine on D2_T+09M2-43” value on D2_T+09M2-43 (5 μM, Xenopus oocytes, mean ± SEM) is reported as 12.1% ± 1.7%. In addition, the “Hill coefficient (nH) on D2_T+09M2-43” value on D2_T+09M2-43 (concentration-effect curve) is 0.76.
As for oxytocin, in the test with OXTR[T4L]_Kcv-42-03, the “response of OXTR[T4L]_Kcv-42-03 to oxytocin” value is listed as “did not induce any response”.
As for spadin, at M2_T-00-43 [1] (1 μM spadin with 10 μM BL1249, mean ± SEM), the “inhibition of BL1249 activation of M2_T-00-43” value is on record as 56.8% ± 9.1%.
